Experimental data as given in patent publication US20230258642A1, “COMPOSITIONS AND METHODS FOR IDENTIFICATION OF MODULATORS OF RAS PROTEIN COMPLEXES” (QUANTA THERAPEUTICS, INC., priority 2020, published 2023).
Values belong to the compound of their own block, whether it stands above or below them.

How the values were obtained:
[1] = target: T1, KRAS^G12D-FMe+RAF1^RBDCRD-SHG2 complex (Homo sapiens, UniProt P01116, G12D); experiment: SHG complex assay: KRAS^G12D-FMe + SH-active RAF1^RBDCRD complex tethered to a PS bilayer; assay type: binding; details: complex tethered overnight in the presence of 1 mM GDP
T1 construct: 1; farnesyl and carboxymethyl modification (FMe) at the C-terminal Cys
Experimental: Factors contributing towards maximizing the complex SHG signal compared to bilayer-tethered KRAS^G12D-FMe alone were further optimized in order to develop a robust screening assay that would allow the separation of real conformational modulators from the baseline signal noise. Accordingly, a pre-formed complex was tethered to the bilayer and the baseline SHG intensity of the complex was compared to each individual component.
In comparison, each protein component was incubated on the PS bilayer to make sure the SHG signal generated by the complex was distinct from any signal produced by the individual components (FIG. 3B). The PS bilayer alone produced a baseline SHG signal around 6000. […]
Since RAF1 binding to KRAS is nucleotide dependent, the SHG signal change was monitored in the presence of 10 mM EDTA and 1 mM GDP. […] The SHG response to this control reinforced that the detected complex signal behaves according to its characterized biology.
A beam from a Ti:S femtosecond laser is used as the fundamental according to procedures known to those skilled in the art. […] Second harmonic light generated by the surface is collected, filtered from the fundamental, and detected by a photomultiplier tube (PMT) according to procedures known to those skilled in the art. A baseline signal with declining intensity due to photobleaching is recorded. […]

Annexin V = target: T2, Annexin V (Homo sapiens, UniProt P08758); experiment: Annexin V counter-screen SHG assay on phosphatidyl serine surface; assay type: binding
T2 sequence (P08758 1-320): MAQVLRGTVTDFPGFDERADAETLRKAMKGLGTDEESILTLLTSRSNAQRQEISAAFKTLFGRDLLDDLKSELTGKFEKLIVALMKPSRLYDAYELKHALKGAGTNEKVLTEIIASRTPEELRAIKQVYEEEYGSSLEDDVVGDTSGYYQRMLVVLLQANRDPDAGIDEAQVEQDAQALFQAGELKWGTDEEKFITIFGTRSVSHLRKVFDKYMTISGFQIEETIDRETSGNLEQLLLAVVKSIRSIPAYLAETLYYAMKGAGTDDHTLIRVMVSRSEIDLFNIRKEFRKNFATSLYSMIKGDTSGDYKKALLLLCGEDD
Text: Annexin V binds to phosphatidyl serine membrane like KRAS^G12D-FMe in a calcium-dependent manner. However, Annexin V is structurally unrelated to KRAS/RAF1 complex. Addition of EDTA, a chelation agent, results in >80% decrease in SHG signal due to loss of Annexin V protein from the phosphatidyl serine surface. […] This assay was established as a counter-screen assay to the KRAS^G12D-FMe+SH-active RAF1^RBDCRD interaction, allowing detection of false-positives due to metal chelation or non-specific protein binding.

- complex SHG signal [1]: no complex SHG signal was detected
SMILES: Nc1nc2c(ncn2[C@@H]2O[C@H](COP(=O)(O)OP(=O)(O)O)[C@@H](O)[C@H]2O)c(=O)[nH]1 [GDP]

- SHG response upon addition to Annexin V (Annexin V): dose-dependent SHG response
SMILES: COc1ccc2c(c1)CN(C(=O)CCN1CCC(Cc3ccccc3)CC1)CCS2 [K201]

- decrease in SHG signal (loss of Annexin V from phosphatidyl serine surface) (Annexin V): > 80%
SMILES: O=C(O)CN(CCN(CC(=O)O)CC(=O)O)CC(=O)O [EDTA]
